Measured values: PubChem BioAssay (NCI)
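Following 48 hours of exposure in 96-well plates, responses at five concentrations were used to interpolate endpoints linearly. TGI denotes the concentration required for complete inhibition of growth.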

Tests used:
Experiment in all cases: DTP human tumour cell line panel, 48 h
[1] = tested on: 786-0 renal
[2] = tested on: A498 renal
[3] = tested on: A549 NSCLC
[4] = tested on: ACHN renal
[5] = tested on: BT-549 breast
[6] = tested on: CAKI-1 renal
[7] = tested on: CCRF-CEM leukemia
[8] = tested on: COLO 205 colon
[9] = tested on: DU-145 prostate
[10] = tested on: EKVX NSCLC
[11] = tested on: HCC-2998 colon
[12] = tested on: HCT-116 colon
[13] = tested on: HCT-15 colon
[14] = tested on: HL-60(TB) leukemia
[15] = tested on: HOP-62 NSCLC
[16] = tested on: HOP-92 NSCLC
[17] = tested on: HS 578T breast
[18] = tested on: HT29 colon
[19] = tested on: IGROV1 ovarian
[20] = tested on: K-562 leukemia
[21] = tested on: KM12 colon
[22] = tested on: LOX IMVI melanoma
[23] = tested on: M14 melanoma
[24] = tested on: MALME-3M melanoma
[25] = tested on: MCF7 breast
[26] = tested on: MDA-MB-231 breast
[27] = tested on: MDA-MB-435
[28] = tested on: MDA-N
[29] = tested on: MOLT-4 leukemia
[30] = tested on: NCI-H226 lung
[31] = tested on: NCI-H23 lung
[32] = tested on: NCI-H460 lung
[33] = tested on: NCI-H522 lung
[34] = tested on: NCI/ADR-RES ovarian
[35] = tested on: OVCAR-3 ovarian
[36] = tested on: OVCAR-4 ovarian
[37] = tested on: OVCAR-5 ovarian
[38] = tested on: OVCAR-8 ovarian
[39] = tested on: RPMI-8226 leukemia
[40] = tested on: SF-268 CNS
[41] = tested on: SF-295 CNS
[42] = tested on: SF-539 CNS
[43] = tested on: SK-MEL-2 melanoma
[44] = tested on: SK-MEL-28 melanoma
[45] = tested on: SK-MEL-5 melanoma
[46] = tested on: SK-OV-3 ovarian
[47] = tested on: SN12C renal
[48] = tested on: SNB-19 CNS
[49] = tested on: SNB-75 CNS
[50] = tested on: SR leukemia
[51] = tested on: SW-620 colon
[52] = tested on: T-47D breast
[53] = tested on: TK-10 renal
[54] = tested on: U251 CNS
[55] = tested on: UACC-257 melanoma
[56] = tested on: UACC-62 melanoma
[57] = tested on: UO-31 renal
[58] = tested on: PC-3 prostate
[59] = tested on: RXF 393 renal

SMILES: Cc1cnc2[nH]c(-c3ccc(Cl)cc3)cc(=O)c2c1
- TGI [1]: > 100 µM
- TGI [2]: > 100 µM
- TGI [3]: > 100 µM
- TGI [4]: > 100 µM
- TGI [5]: > 100 µM
- TGI [6]: > 55.6 µM
- TGI [7]: > 100 µM
- TGI [8]: > 100 µM
- TGI [9]: > 69.8 µM
- TGI [10]: > 100 µM
- TGI [11]: 70.1 µM
- TGI [12]: > 29.3 µM
- TGI [13]: > 40.8 µM
- TGI [14]: > 23.3 µM
- TGI [15]: > 100 µM
- TGI [16]: > 100 µM
- TGI [17]: > 100 µM
- TGI [18]: > 39.1 µM
- TGI [19]: > 100 µM
- TGI [20]: 19.8 µM
- TGI [21]: > 100 µM
- TGI [22]: > 100 µM
- TGI [23]: > 100 µM
- TGI [24]: > 100 µM
- TGI [25]: > 72.5 µM
- TGI [26]: > 19.9 µM
- TGI [27]: 1.97 µM
- TGI [28]: 3.61 µM
- TGI [29]: > 53.7 µM
- TGI [30]: > 100 µM
- TGI [31]: > 100 µM
- TGI [32]: > 100 µM
- TGI [33]: > 100 µM
- TGI [34]: > 26.3 µM
- TGI [35]: > 24.4 µM
- TGI [36]: > 100 µM
- TGI [37]: > 31.6 µM
- TGI [38]: > 100 µM
- TGI [39]: > 60.3 µM
- TGI [40]: > 100 µM
- TGI [41]: 23 µM
- TGI [42]: 6.81 µM
- TGI [43]: > 100 µM
- TGI [44]: > 100 µM
- TGI [45]: > 100 µM
- TGI [46]: > 100 µM
- TGI [47]: > 100 µM
- TGI [48]: > 100 µM
- TGI [49]: > 100 µM
- TGI [50]: > 100 µM
- TGI [51]: > 100 µM
- TGI [52]: > 100 µM
- TGI [53]: > 100 µM
- TGI [54]: > 32.4 µM
- TGI [55]: > 100 µM
- TGI [56]: > 100 µM
- TGI [57]: > 60.5 µM

SMILES: COc1nc2c(c(=O)[nH]1)N=C(c1ccc(Cl)cc1)CC(c1ccccc1)N2 (centres undefined)
- TGI [1]: > 100 µM
- TGI [2]: > 100 µM
- TGI [3]: > 100 µM
- TGI [4]: 52.3 µM
- TGI [5]: > 100 µM
- TGI [6]: 66.2 µM
- TGI [7]: 44.9 µM
- TGI [8]: > 100 µM
- TGI [9]: > 100 µM
- TGI [10]: > 100 µM
- TGI [11]: > 100 µM
- TGI [12]: > 100 µM
- TGI [13]: 64.6 µM
- TGI [15]: > 100 µM
- TGI [16]: 67.9 µM
- TGI [18]: > 100 µM
- TGI [19]: > 100 µM
- TGI [20]: 67.1 µM
- TGI [21]: > 100 µM
- TGI [22]: 57.1 µM
- TGI [23]: 43 µM
- TGI [25]: > 100 µM
- TGI [26]: 50.8 µM
- TGI [27]: > 100 µM
- TGI [28]: 76.8 µM
- TGI [29]: > 100 µM
- TGI [30]: > 100 µM
- TGI [31]: > 100 µM
- TGI [32]: 69.3 µM
- TGI [33]: 48.6 µM
- TGI [34]: 75.4 µM
- TGI [35]: > 100 µM
- TGI [36]: 57.4 µM
- TGI [37]: > 100 µM
- TGI [38]: 60.9 µM
- TGI [58]: > 100 µM
- TGI [39]: 65.8 µM
- TGI [59]: 61.4 µM
- TGI [41]: 70.7 µM
- TGI [42]: 42.1 µM
- TGI [43]: 60.1 µM
- TGI [44]: 54.1 µM
- TGI [45]: 36.8 µM
- TGI [47]: 47.1 µM
- TGI [48]: > 100 µM
- TGI [49]: 54.9 µM
- TGI [50]: > 100 µM
- TGI [51]: > 100 µM
- TGI [54]: > 100 µM
- TGI [55]: > 100 µM
- TGI [56]: 46.6 µM
- TGI [57]: > 100 µM
